The values that follow come from patent EP4644383A1 (Jiangsu Yahong Meditech Co., Ltd., priority 2022, dated 2024).

Each structure is given as a SMILES string.

Common to all, as to assay type: cell-based
One test concerns Ba/F3-BCR-FGFR1 cells. Nature of the test: Inhibition of proliferation activity of Ba/F3-BCR-FGFR1 cells (CellTiter-Glo). The settings on record: Ba/F3-BCR-FGFR1 cells, 72 hours, CTG; read-out: IC50 (nM) Ba/F3-BCR-FGFR1. The procedure: (§1) The present experiment used CellTiter-Glo® Luminescent Cell Viability Assay (Promega: G7573) kit, which was a homogeneous cell viability detection method and determined the cell viability of cultured cells by quantifying ATP. • ① Ba/F3-BCR-FGFR1 or Ba/F3-FGFR3-BAIAP2L1 cells were cultured in 1640 complete medium (Gibco: 11879020) (10% FBS (Gibco: 10091-148)+1% Pen Strep (Gibco: 15140122)) under the condition of 37°C and 5% CO2. • (2) The cells in logarithmic growth phase were harvested and counted using a […]. The trypan blue exclusion method was used to detect cell viability to ensure the cell viability was above 90%. • ③ The cell density was adjusted using 1640 complete medium, and then, the cells were seeded into a 96-well cell culture plate at 90 µL/well with a total of 2000 cells. • ④ A 10-fold drug solution was prepared starting from a maximum drug concentration of 10 µM and 4-fold serially diluted into10 concentrations. Then, 10 µL of each of the serially diluted compounds was transferred to the corresponding experimental wells of a 96-well cell plate, with two replicates for each drug concentration. • ⑤ The 96-well plate with the cells that had been treated with the drugs was placed under the condition of 37°C and 5% CO2 to be further cultured for 72 hours, and then analyzed by CTG. • ⑥ The CTG reagent was melted and the cell plate was equilibrated to room temperature for 30 minutes. • ⑦ 50 µL of the CTG solution was added to each well. • ⑧ The cell plate was shaken on an orbital shaker for 5 minutes to lyse the cells. • ⑨ The cell plate was placed at room temperature for 20 minutes to stabilize the luminescence signal. The luminescence values were read to collect the data. • ⑩ The data were analyzed using XLFit excel plugin version 5.5.0.5, and fitted with non-linear S-curve regression to obtain the dose-response curves and thus calculate the IC50 values. Y = Bottom + (Top-Bottom)/((1+(IC50/X))^(∧) HillSlope [formula]
(§2) "Top" refers to the maximum response, "Bottom" refers to the minimum response, and "HillSlope" refers to the slope of the curve.
(§3) "Max" represents the average value of the cell control+DMSO, and "Min" represents the average value of the medium control+DMSO.

The test system of the next test is RT112-FGFR3-V555M cells. Nature of the test: Inhibition of proliferation activity of RT112-FGFR3-V555M cells (CellTiter-Glo). The settings on record: RT112-FGFR3-V555M cells, 72 hours, CTG; read-out: IC50 (nM) RT112-FGFR3-V555M. The procedure:
The present experiment used CellTiter-Glo® Luminescent Cell Viability Assay (Promega: G7573) kit, which was a homogeneous cell viability detection method and determined the cell viability of cultured cells by quantifying ATP. • ① RT112-FGFR3-V555M cells were cultured in MEM complete medium (Gibco: 51200038) (10% FBS (Gibco: 10091-148)+1% Pen Strep (Gibco: 15140122)+1% NEAA (Gibco: 11140050)) under the condition of 37°C and 5% CO2. • (2) The cells in logarithmic growth phase were harvested and counted using a […]. The trypan blue exclusion method was used to detect cell viability to ensure the cell viability was above 90%. • ③ The cell density was adjusted using MEM complete medium, and then, the cells were seeded into a 96-well cell culture plate at 90 µL/well with a total of 5000 cells. • ④ The 96-well plate with the cells was placed under the condition of 37°C and 5% CO2 to be cultured for 24 hours. • ⑤ 24 hours later, a 10-fold drug solution was prepared starting from a maximum drug concentration of 10 µM and 4-fold serially diluted into10 concentrations. Then, 10 µL of each of the serially diluted compounds was transferred to the corresponding experimental wells of a 96-well cell plate, with two replicates for each drug concentration. • ⑥ The 96-well plate with the cells that had been treated with the drugs was placed under the condition of 37°C and 5% CO2 to be further cultured for 72 hours, and then analyzed by CTG. • ⑦ The CTG reagent was melted and the cell plate was equilibrated to room temperature for 30 minutes. • ⑧ 50 µL of the CTG solution was added to each well. • ⑨ The cell plate was shaken on an orbital shaker for 5 minutes to lyse the cells. • ⑩ The cell plate was placed at room temperature for 20 minutes to stabilize the luminescence signal. The luminescence values were read to collect the data. • ⑪ The data were analyzed using XLFit excel plugin version 5.5.0.5, and fitted with non-linear S-curve regression to obtain the dose-response curves and thus calculate the IC50 values. Y = Bottom + (Top-Bottom)/((1+(IC50/X))^(∧) HillSlope [formula]
as §2
"Max" represents the average value of the cell+DMSO control, and "Min" represents the average value of the medium control+DMSO.
A general note: In ATP-based viability assays light output follows the ATP content of the culture.

In test [1] the test system is Ba/F3-FGFR3-BAIAP2L1 cells. The test can be described thus: Inhibition of proliferation activity of Ba/F3-FGFR3-BAIAP2L1 cells (CellTiter-Glo). Conditions: for IC50: Ba/F3-FGFR3-BAIAP2L1 cells, 72 hours, CTG, read-out: IC50 (nM) Ba/F3-FGFR3-BAIAP2L1; for Selectivity (X) FGFR1/FGFR3: ratio of IC50 Ba/F3-BCR-FGFR1 to IC50 Ba/F3-FGFR3-BAIAP2L1. The procedure: as §1, with “Then, 10 µL of each of the serially diluted compounds was transferred to the corresponding experimental wells of a 96-well cell plate, with two replicates for each drug concentration. • ⑤ The 96-well plate with the cells that had been treated with the drugs was placed under the condition of 37°C and 5% CO2 to be further cultured for 72 hours, and then analyzed by CTG. • ⑥ The CTG reagent was melted and the cell plate was equilibrated to room temperature for 30 minutes. • ⑦ 50 µL of the CTG solution was added to each well. • ⑧ The cell plate was shaken on an orbital shaker for 5 minutes to lyse the cells. • ⑨ The cell plate was placed at room temperature for 20 minutes to stabilize the luminescence signal.” left out
as §2, §3

`CC(Oc1ccc2[nH]nc(-c3cnn(C4CN(C(=O)C(C)(C)O)C4)c3)c2c1)c1cccc2nccnc12` (centres unmarked) [Example 190, 2-hydroxy-2-methyl-1-(3-(4-(5-(1-(quinoxalin-5-yl)ethoxy)-1H-indazol-3-yl)-1H-pyrazol-1-yl)azetidin-1-yl)propan-1-one]: the IC50 in the test with Ba/F3-BCR-FGFR1 cells turned out to be 425 nM; in the test on RT112-FGFR3-V555M cells, 81.6 nM; in test [1], 3.8 nM. In addition, the “Selectivity (X) FGFR1/FGFR3” value in test [1] amounted to 113 X.

Take `CC(=O)N1CC(n2cc(-c3n[nH]c4ccc(OC(C)c5cccc6nccnc56)cc34)cn2)C1` (centres unmarked) [Example 218, 1-(3-(4-(5-(1-(quinoxalin-5-yl)ethoxy)-1H-indazol-3-yl)-1H-pyrazol-1-yl)azetidin-1-yl)ethan-1-one]: the IC50 in the test on Ba/F3-BCR-FGFR1 cells was determined as 441 nM; in the test on RT112-FGFR3-V555M cells, 64.7 nM; in test [1], 8.4 nM. For the same molecule, the “Selectivity (X) FGFR1/FGFR3” value in test [1] was 53 X.

On to `CC(Oc1cc2c(-c3cnn(C)c3)n[nH]c2cc1F)c1cc(Cl)cc2nccnc12` (centres unmarked) [Example 227, 7-chloro-5-(1-((6-fluoro-3-(1-methyl-1H-pyrazol-4-yl)-1H-indazol-5-yl)oxy)ethyl)qu inoxaline], for which the IC50 turned out to be 390 nM in the test on Ba/F3-BCR-FGFR1 cells, 128 nM with RT112-FGFR3-V555M cells and 3.1 nM in test [1]. Besides, the “Selectivity (X) FGFR1/FGFR3” value in test [1] worked out at 126 X.

For `CC(Oc1ccc2[nH]nc(-c3cnn(C)c3)c2c1)c1nc(C(F)F)cc2nccnc12` (centres unmarked) [Example 236, 7-(difluoromethyl)-5-(1-((3-(1-methyl-1H-pyrazol-4-yl)-1H-indazol-5-yl)oxy)ethyl)pyridino[3,4-b]pyrazine], the IC50 in the test with Ba/F3-BCR-FGFR1 cells is 161 nM; with RT112-FGFR3-V555M cells, 38.9 nM; in test [1], 0.9 nM. Further, in test [1], the “Selectivity (X) FGFR1/FGFR3” value came out at 182 X.

Regarding `[2H]C([2H])([2H])c1cc2nccnc2c(C(C)Oc2ccc3[nH]nc(-c4cnn(C)c4)c3c2)n1` (centres unmarked) [Example 241], the values for the IC50 (with Ba/F3-BCR-FGFR1 cells; in the test on RT112-FGFR3-V555M cells; in test [1]) were 62.3 nM, 18.2 nM and 0.8 nM, respectively. Further, in test [1], the “Selectivity (X) FGFR1/FGFR3” value is recorded as 76 X.
